Structures can show the parent of a compound that is named as a salt. Where two headings read alike, the source gives them in different places.
Experiments:
[1] = system: HIV in lymphocyte derived CEM cells; assay: Cellular Infection Assay, antiviral efficacy in HIV infected CEM cells (XTT cytopathic procedure); type: cell-based; conditions: Human immunodeficiency virus 1, CCRF-CEM; for EC95: protecting the cells 95% relative to untreated control; for EC50: read-out: Antiviral Efficacy EC50
Procedure: (§1) The compounds of the present invention were evaluated for their in vitro inhibition of HIV-1 protease and for their antiviral efficacy in HIV infected lymphocytes.
(§2) Compounds were tested in lymphocyte derived CEM cells using the XTT cytopathic procedures and were performed at Southern Research Institute (Buckheit, et. al. Antiviral Res. 1993, 21, 247; see also Weislow, et al. J Nat. Cancer Inst., 1989, 81, 577). Compound concentrations were 0.32, 1, 3.2, 10, 32 and 100 uM. The EC50 represents the concentration of agent which reduces HIV cytopathic effects 50% relative to untreated control. EC95 represents the concentration of agent protecting the cells 95% relative to untreated control. Cellular toxicity of the agents are estimated from the TC50 which represents the concentration of the agent which inhibits 50% of the viability of uninfected cells.

[2] = biological target: T1, HIV-1 protease (Human immunodeficiency virus type 1 group M subtype B, UniProt P04585); assay: biochemical; conditions: read-out: Inhib of HIV-Protease IC50
T1 construct: Recombinant HIV-1 protease (>96% purity); purchased Bachem Bioscience Inc. (King of Prussia, PA)
Text: The testing of specific 5,6-dihydropyrones as inhibitors of the HIV aspartyl protease, based on the study of the hydrolysis of an undecapeptide enzyme substrate, and the testing of the 5,6-dihydropyrones as inhibitors of viral growth and infectivity, based on the study of infection of H9 cell lines by the HIV-1iiib strain, are also disclosed. […] The methods employed follow the procedures of Tummino, et al. (Archives of Biochemistry and Biophysics 1995, 316, 523).
as §1
Recombinant HIV-1 protease (>96% purity) and HIV protease substrate III (the undecapeptide H-His-Lys-Ala-Arg-Val-Leu-Nph-Glu-Ala-Nle-Ser-NH2,>97% purity) were purchased from Bachem Bioscience Inc. (King of Prussia, PA).
The methods employed follow the procedures of Tummino, et al. (Archives of Biochemistry and Biophysics 1995, 316, 523). […] (total volume, 100 μl). […] The final inhibitor concentrations used were 0 (0.1, 0.2, in some experiments), 0.5, 1, 2, 5, 10, 20, 50, and 100 μM. The solution was mixed, incubated for 5 minutes and the reaction quenched by addition of trifluoracetic acid, 2% final. The (leu-p-nitro-phe) bond of the substrate is cleaved by the enzyme and substrate and products separated by reverse-phase HPLC. Absorbance was measured at 220 nm, peak areas determined, and percentage conversion to product used to calculate percentage control (=[% conversion (+inhibitor)/% conversion (-inhibitor)]×100).

[3] = Cellular toxicity in uninfected CEM cells (TC50); type: cell-based; conditions: human, inhibits 50% of the viability of uninfected cells
Procedure: as §2

[4] = CEM cells, reduces HIV cytopathic effects 50% relative to untreated control
[5] = 6.0 nM HIV-1 protease, 40 μM substrate III, 37° C., 5 minutes

Work on Cc1cc(SC2=C(O)CC(CCc3ccc(O)cc3)(C3CCCCC3)OC2=O)c(C(C)(C)C)cc1CO (stereo not shown) [Example 9, 3-(2-tert-Butyl-4-hydroxymethyl-5-methyl-phenylsulfanyl)-6-cyclohexyl-4-hydroxy-6-[2-(4-hydroxy-phenyl)-ethyl]-5,6-dihydro-pyran-2-one] yielded an EC95 ([1]; CEM cells) of 1.2 µM, an EC50 [1, 4] of 0.5 µM and an IC50 [2] of 0.0025 µM. It also gave a CC50 [3] of 75 µM.

With Cc1cc(SC2=C(O)CC(CCc3ccc(O)cc3)(C3CCCCC3)OC2=O)c(C(C)(C)C)cc1O (stereo not shown) [Example 10, 3-(2-tert-Butyl-4-hydroxy-5-methyl-phenylsulfanyl)-6-cyclohexyl-4-hydroxy-6-[2-(4-hydroxy-phenyl)-ethyl]-5,6-dihydro-pyran-2-one] the EC95 ([1]; CEM cells) was 8.9 µM, the EC50 [1, 4] was 3.1 µM and the IC50 [2, 5] was 0.0029 µM. The CC50 [3] was 73 µM.

In the case of Cc1cc(SC2=C(O)CC(C)(CCc3ccc(O)cc3)OC2=O)c(C(C)(C)C)cc1N (stereo not shown) [Example 11, 3-(4-Amino-2-tert-butyl-5-methyl-phenylsulfanyl)-4-hydroxy-6-[2-(4-hydroxy-phenyl)-ethyl]-6-methyl-5,6-dihydro-pyran-2-one monohydrochloride], the EC95 ([1]; CEM cells) is reported as 9.1 µM, the EC50 [1, 4] is reported as 3.7 µM and the IC50 [2, 5] is reported as 0.013 µM. For the same compound, the CC50 [3] was > 100 µM.

Cc1cc(SC2=C(O)CC(C)(CCc3ccc(O)cc3)OC2=O)c(C(C)(C)C)cc1NS(=O)(=O)c1ccc(C#N)cc1 (stereo not shown) [Example 13, N-(5-tert-Butyl-4-{4-hydroxy-6-[2-(4-hydroxy-phenyl)-ethyl]-6-methyl-2-oxo-5,6-dihydro-2H-pyran-3-ylsulfanyl}-2-methyl-phenyl)-4-cyano-benzenesulfonamide] gave an EC95 ([1]; CEM cells) of 20 µM, an EC50 [1, 4] of 5 µM and an IC50 [2, 5] of 0.0021 µM. The CC50 [3] was > 100 µM.

Compound Cc1cc(SC2=C(O)CC(CCc3ccc(O)cc3)(CCc3ccc(O)cc3)OC2=O)c(C(C)(C)C)cc1CO [Example 14, 3-(2-tert-Buty-4-hydroxymethyl-5-methyl-phenylsulfanyl)-4-hydroxy-6,6-bis-[2-(4-hydroxyphenyl)ethyl]-5,6-dihydro-pyran-2-one] has an EC95 ([1]; CEM cells) of 24 µM, an EC50 [1, 4] of 6.3 µM and an IC50 [2, 5] of 0.0013 µM. It also gave a CC50 [3] of 69 µM.

For Cc1cc(SC2=C(O)CC(CCc3ccc(N)cc3)(c3ccccc3)OC2=O)c(C(C)(C)C)cc1CO (stereo not shown) [Example 15, 6-[2-(4-aminophenyl)ethyl]-3-(2-tert-butyl-4-hydroxymethyl-5-methyl-phenylsulfanyl)-4-hydroxy-6-phenyl-5,6-dihydro-pyran-2-one], the EC95 ([1]; CEM cells) was 9.4 µM, the EC50 [1, 4] was 3.7 µM and the IC50 [2, 5] was 0.0031 µM. The CC50 [3] was 94 µM.

For Cc1cc(SC2=C(O)CC(CCc3ccc(N)cc3)(CCc3ccc(N)cc3)OC2=O)c(C(C)(C)C)cc1CO [Example 16, 6,6-Bis-[2-(4-aminophenyl)ethyl]-3-(2-tert-butyl-4-hydroxymethyl-5-methyl-phenylsulfanyl)-4-hydroxy-5,6-dihydro-pyran-2-one], the EC95 ([1]; CEM cells) was 15 µM, the EC50 [1, 4] was 1.2 µM and the IC50 [2, 5] was 0.0016 µM. It also gave a CC50 [3] of 72 µM.

For Cc1cc(SC2=C(O)C[C@@](CCc3ccccc3)(c3ccccc3)OC2=O)c(C(C)(C)C)cc1CO [Example 17, 3-(tert-Butyl4-hydroxymethyl-5-methyl-phenylsulfanyl)-4-hydroxy-6-phenethyl-6-phenyl-5,6-dihydro-pyran-2-one (S isomer)], the EC95 ([1]; CEM cells) was 7.5 µM, the EC50 [1, 4] was 1.9 µM and the IC50 [2, 5] was 0.0039 µM. It also gave a CC50 [3] of 60 µM.

Cc1cc(SC2=C(O)CC(CCc3ccc(O)cc3)(CCc3ccc(O)cc3)OC2=O)c(C(C)(C)C)cc1N [Example 20, 3-(4-Amino-2-tert-butyl-5-methyl-phenylsulfanyl)-4-hydroxy-6,6-bis[2-(4-hydroxy-phenyl)ethyl]-5,6-dihydro-pyran-2-one] showed an EC95 ([1]; CEM cells) of 9.6 µM, an EC50 [1, 4] of 5 µM and an IC50 [2, 5] of 0.0029 µM. For the same compound, the CC50 [3] was 65 µM.

Cc1cc(SC2=C(O)CC(CCc3cccc(O)c3)(CCc3cccc(O)c3)OC2=O)c(C(C)(C)C)cc1CO [Example 21, 3-(2-tert-Butyl-4-hydroxymethyl-5-methyl-phenylsulfanyl)-4-hydroxy-6,6-bis-[2-(3-hydroxy-phenyl)ethyl]-5,6-dihydro-pyran-2-one] showed an EC95 ([1]; CEM cells) of 9.3 µM, an EC50 [1, 4] of 4.8 µM and an IC50 [2, 5] of 0.0021 µM. For the same compound, the CC50 [3] was 66 µM.

With Cc1cc(SC2=C(O)CC(CCc3cccc(O)c3)(CCc3cccc(O)c3)OC2=O)c(C(C)(C)C)cc1OS(=O)(=O)N(C)C [Example 22, Dimethyl-sulfamic acid 5-tert-butyl-4-{4-hydroxy-6,6-bis-[2-(3-hydroxy-phenyl)-ethyl]-2-oxo-5,6-dihydro-2H-pyran-3-yisulfanyl}-2-methyl-phenyl ester] the EC95 ([1]; CEM cells) was 8.3 µM, the EC50 [1, 4] was 2.3 µM and the IC50 [2, 5] was 0.009 µM. It also gave a CC50 [3] of 66 µM.

COc1cc(CCC2(CCc3ccc(O)c(OC)c3)CC(O)=C(Sc3cc(C)c(OCCO)cc3C(C)(C)C)C(=O)O2)ccc1O [Example 23, 3-[2-tert-Butyl-4-(2-hydroxy-ethoxy)-5-methyl-phenylsulfanyl]-4-hydroxy-6,6-bis [2-(4-hydroxy-3-methoxy-phenyl)-ethyl]-5,6-dihydro-pyran-2-one] showed an EC95 ([1]; CEM cells) of 7.9 µM, an EC50 [1, 4] of 2 µM and an IC50 [2, 5] of 0.0034 µM. It also gave a CC50 [3] of 61 µM.

With Cc1cc(SC2=C(O)CC(CCc3ccccc3)(c3ccc(OCCN4CCNCC4)cc3)OC2=O)c(C(C)(C)C)cc1OS(=O)(=O)N(C)C (stereo not shown) [Example 26, Dimethyl-sulfamic acid 5-tert-butyl-4-{4-hydroxy-2-oxo-6-phenethyl-6-[4-(2-piperazin-1-yl-ethoxy)-phenyl]-5,6-dihydro-2H-pyran-3-ylsulfanyl}-2-methyl-phenyl ester] the EC50 [1] was 5.1 µM, the EC95 ([1]; CEM cells) was 9.3 µM and the IC50 [2, 5] was 0.0051 µM. The CC50 [3] was > 100 µM.

Compound CCNS(=O)(=O)Oc1cc(C(C)(C)C)c(SC2=C(O)CC(CCc3ccc(O)cc3)(CCc3ccc(O)cc3)OC2=O)cc1C [Example 28] has an EC95 ([1]; CEM cells) of 9.4 µM, an EC50 [1, 4] of 5.5 µM and an IC50 [2, 5] of 0.0013 µM. It also gave a CC50 [3] of 67 µM.

CCNS(=O)(=O)Oc1cc(C(C)(C)C)c(SC2=C(O)CC(CCc3ccc(N)cc3)(CCc3ccc(N)cc3)OC2=O)cc1C [Example 29, Ethyl-sulfamic acid 5-tert-butyl-4-{6,6-bis-[2-(4-amino-phenyl)-ethyl]-4-hydroxy-2-oxo-5,6-dihydro-2H-pyran-3-ylsulfanyl}2-methyl-phenyl ester] showed an EC95 ([1]; CEM cells) of 2.9 µM, an EC50 [1, 4] of 1.2 µM and an IC50 [2, 5] of 0.0018 µM. The CC50 [3] was 66 µM.

With Cc1cc(SC2=C(O)CC(CCc3ccc(O)cc3)(CCc3ccc(O)cc3)OC2=O)c(C(C)(C)C)cc1OS(=O)(=O)N1CCN(C)CC1 [Example 30, 4-Methyl-piperazine-1-sulfonic acid 5-tert-butyl-4-{4-hydroxy-6,6-bis-[2-(4-hydroxy-phenyl)-ethyl]-2-oxo-5,6-dihydro-2H-pyran-3-ylsulfanyl}-2-methyl-phenyl ester] the EC95 ([1]; CEM cells) was 9.3 µM, the EC50 [1, 4] was 5 µM and the IC50 [2, 5] was 0.0055 µM. It also gave a CC50 [3] of 66 µM.

Cc1cc(SC2=C(O)CC(C)(CCc3ccc(O)cc3)OC2=O)c(C(C)(C)C)cc1OS(=O)(=O)N1CCN(C)CC1 (stereo not shown) [Example 31, 4-Methyl-piperazine-1-sulfonic acid 5-tert-butyl-4-{4-hydroxy-6-[2-(4-hydroxy-phenyl)-ethyl]-6-methyl-2-oxo-5,6-dihydro-2H-pyran-3-ylsulfanyl}-2-methyl-phenyl ester] gave an EC95 ([1]; CEM cells) of 8.4 µM, an EC50 [1, 4] of 2.3 µM and an IC50 [2, 5] of 0.0071 µM. The CC50 [3] was > 100 µM.

With Cc1ccc(C(C)(C)C)c(SC2=C(O)CC(CCc3ccccc3)(c3ccc(OCCN4CCNCC4)cc3)OC2=O)c1 (stereo not shown) [Example 35, 3-(2-tert-Butyl-5-methyl-phenylsulfanyl)-4-hydroxy-6-phenethyl-6-[4-(2-piperazin-1-yl-ethoxy)-phenyl]-5,6-dihydro-pyran-2-one] the EC95 ([1]; CEM cells) was 8 µM, the EC50 [1, 4] was 3.5 µM and the IC50 [2, 5] was 0.0063 µM. It also gave a CC50 [3] of 84 µM.

Compound Cc1cc(SC2=C(O)CC(CCc3ccc(O)cc3)(c3ccccc3)OC2=O)c(C(C)(C)C)cc1CO (stereo not shown) [Example 36, 3-(2-tert-Butyl-4-hydroxymethyl-5-methyl-phenylsulfanyl)-4-hydroxy-6-[2-(4-hydroxy-phenyl)-ethyl]-6-phenyl-5,6-dihydro-pyran-2-one] has an EC95 ([1]; CEM cells) of 20 µM, an EC50 [1, 4] of 4.7 µM and an IC50 [2, 5] of 0.0016 µM. The CC50 [3] was > 100 µM.
